Holding throughout (test): NCI anticancer screen, dose series, 48 h
For experiment [1], the system named is BT-549 breast.
The subject of experiment [2] is DMS 114 small cell lung.
For experiment [3], the system named is LXFL 529 NSCLC.
The test system of experiment [4] is M19-MEL melanoma.
Experiment [5] relates to RXF-631 renal.
Experiment [6] deals with MDA-N.
Experiment [7] relates to SNB-78 CNS.
The test system of experiment [8] is XF 498 CNS.
Experiment [9] relates to HOP-18 NSCLC.

Molecules are shown by their SMILES. Values joined by “and” are separate entries in the source; they are usually repeats but may differ in a detail not shown here. Equal values may be shown once.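 In this assay, cells in 96-well plates receive the compound at five concentrations for 48 hours. Endpoints are linearly interpolated between the surrounding concentrations. GI50 marks 50% less growth. TGI: total growth inhibition.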 Bounds are passed on as bounds.

The values that follow come from PubChem BioAssay (NCI).

Take `C[C@]12CCc3sc(Nc4ccc(OC(F)(F)F)cc4)nc3C1=CC[C@@H]1[C@@H]2CC[C@]2(C)C(=O)CC[C@@H]12`: in experiment [1], the GI50 was 1780 nM and the TGI was 7.42 µM.
As for `CCC1=CCN(c2cc(C)ccn2)OC1c1ccc(OC)cc1` (stereo not given), the TGI in experiment [2] is 91.6 µM; in experiment [3] it was greater than 100 µM; in experiment [4], greater than 100 µM; in experiment [5], greater than 100 µM.
For `CCN1C(=O)c2ccc3c4c(ccc(c24)C1=O)C(=O)N(CCCNCc1ccccc1OC)C3=O`, in experiment [1], the GI50 is 1480 nM and the TGI came out at 2.94 µM.
On the same counts, the results for `O=C(/C=C/c1ccccc1)Nc1ncc(Cc2ccccc2Cl)s1` are 945 nM and greater than 100 µM.
On the same counts, the results for `CN(c1ccc(NC(=O)Nc2c(Cl)cccc2Cl)cc1)c1ccnc(Nc2cccc(CS(C)(=O)=O)c2)n1` are 3300 nM and 8.15 µM.
Consider `CCCCCCCCCCCCCCCCCCOC[C@H](COP(=O)(O)O[C@H]1[C@H](O)[C@@H](O)[C@H](O)C[C@H]1O)OC`, for which the GI50 in experiment [1] is > 100000 nM and 15900 nM; in experiment [6] it was 64.1 µM and 12 µM. Further, the TGI was > 100 µM and 30.4 µM in experiment [1]; > 100 µM and 25.4 µM in experiment [6].
With `CN(C)C/C=C/C(=O)Nc1ccc(C(=O)N[C@@]2(C)CCC[C@@H](Nc3ncc(Cl)c(-c4c[nH]c5ccccc45)n3)C2)nc1`, in [1], the GI50 is 36 nM and the TGI was 0.155 µM.
Take `N#CCC(=O)N/N=C1/C(=O)N(c2ccc(Cl)cc2)C(=O)C(=O)C1c1nc2ccccc2s1` (stereo not given): the TGI in experiment [2], in experiment [3], in experiment [4], in [7] and in experiment [8] was greater than 100 µM throughout.
Regarding `Nc1n[nH]c2cccc(C#Cc3cccc(NC(=O)c4cccc(C(F)(F)F)c4)c3)c12`, in [1], the GI50 was 3340 nM and the TGI is 11.1 µM.
Regarding `COc1ccc(C=O)cc1O[Si](C)(C)C(C)(C)C`, the TGI in experiment [2], in experiment [9], in experiment [3], in experiment [4] and in experiment [7] was greater than 100 µM throughout.
Regarding `CCCCCCCCn1ccc2cc(NC(=O)Cn3cc(CN4CCCCCC4)nn3)ccc21`, in experiment [1], the GI50 was 1720 nM and the TGI is 3.32 µM.
Regarding `O=S(=O)(C1=CC(S(=O)(=O)c2ccccc2)CN(Cc2ccccc2)C1c1cccc2ccccc12)c1ccccc1` (stereo not given), the TGI in experiment [2], in experiment [4], in experiment [5] and in experiment [7] was greater than 69 µM each time.
Turning to `COCCOC(=O)C1=C(O)c2ccccc2S(=O)(=O)N1C`, the TGI in [6] is greater than 100 µM.
As to `CC(C)C(O)(C(C)C)C(C)C`, the TGI in [1] and in [6] was greater than 100 µM in each case.
As for `CCC[CH2][Sn]([CH2]CCC)([O]C(=O)CN)[O]C(=O)CN`, the GI50 in experiment [2] was 17.9 µM; in experiment [3] it was 11.4 µM; in experiment [4], 49.7 µM; in experiment [7], 21.6 µM; in experiment [8] it was 19.6 µM. For the same compound, the TGI in experiment [2] was 46.5 µM; in experiment [3] it was 26 µM; in experiment [4], greater than 100 µM; in experiment [7], 72 µM; in experiment [8], 48 µM.
Take `CC1(C)N=C(N)N=C(N)N1c1ccc(CCC(=O)Nc2ccc(S(=O)(=O)F)cc2)c(Cl)c1`: in [1], the GI50 is 995 nM and the TGI is greater than 100 µM.
The matching figures for `COC(=O)c1ccc2[nH]c(O)c(C(=Nc3ccc(N(C)C(=O)CN4CCN(C)CC4)cc3)c3ccc4c(c3)OCO4)c2c1`: 1060 nM and 2.47 µM.
Take `CC(=O)c1ccc(NC(=O)/C(CC(=O)c2sc(-c3cccnc3)nc2C)=N/NC(N)=O)cc1`: the TGI in [2], in experiment [3], in experiment [4], in experiment [7] and in experiment [8] was greater than 100 µM each time.
In the case of `Cc1ccc(S(=O)(=O)OC2CC=CC2)cc1`, the TGI in [2], in experiment [9], in [3], in experiment [4], in [7] and in experiment [8] was greater than 100 µM each time.
With `COc1ccc2c(c1)OC1=C(C(=O)OC1)C2c1cc(OC)c2c(c1)OCCO2` (stereo not given), in [1], the GI50 is 131 nM and the TGI was 28.8 µM.
With `C=CC[P@]1(=O)O[C@H](c2ccccc2)[C@H](C)N1C`, the TGI in experiment [2], in experiment [9], in experiment [3], in experiment [4] and in experiment [7] was greater than 100 µM each time.
Turning to `Oc1ccc2ccccc2c1N=Nc1cccc2ccccc12`, the TGI in [1] and in [6] was greater than 100 µM each time.
As for `O=C(Nc1cccc(O)c1)C(=O)C1C(=O)NC(=S)NC1=O`, the TGI in experiment [2], in experiment [9], in [3], in experiment [4], in experiment [7] and in experiment [8] was greater than 100 µM each time.
Turning to `COc1ccc2c(c1)NC1=C(C(=O)OC1)C2c1cc(OC)c(OC)c(OC)c1` (stereo not given), in [1], the GI50 was less than 10 nM and the TGI is less than 0.01 µM.
The matching figures for `CCOc1cc(C(C)(C)C)ccc1C1=N[C@H](c2ccc(Cl)cc2)[C@H](c2ccc(Cl)cc2)N1C(=O)N1CCN(CC#Cc2cccc3c2CN([C@@H]2CCC(=O)NC2=O)C3=O)CC1`: 317 nM and 19.8 µM.
On to `CN(C)CCOc1ccc([N+](=O)[O-])c2cccnc12`, for which the TGI in [1] and in experiment [6] was greater than 100 µM in each case.
Regarding `CCN(CC)CCNC(Cc1ccccc1)c1ccc(OCc2ccccc2)cc1` (stereo not given), in experiment [1], the GI50 is 3550 nM and the TGI was 18.7 µM.
In the case of `COC(=O)C(=O)CC(=O)CCn1[nH]c(=O)c(Cl)c(Cl)c1=O`, the TGI in experiment [2], in [3], in experiment [4], in experiment [7] and in experiment [8] was greater than 100 µM each time.
As for `Cn1c(Cl)c(/C=C2/C(=O)Nc3ccccc32)c2ccccc21`, in [1], the GI50 was 243 nM and the TGI was 3.87 µM.
As to `O=C1C(=O)c2ccccc2C(O)=C1C(C1=C(O)c2ccccc2C(=O)C1=O)c1ccc(Cl)cc1`, the TGI in [1] worked out at 32.7 µM; in experiment [6], 3.74 µM.
`OCC12C=CC(C1)c1ccccc12` (stereo not given): the TGI in experiment [2], in [9], in experiment [3], in experiment [4] and in experiment [5] was greater than 100 µM throughout.
As for `C=C(C)[C@@H]1CC[C@]2(COCCCN)CC[C@]3(C)[C@H](CC[C@@H]4[C@@](C)(CCCNCCCN)[C@H](C(=C)C)CC[C@]43C)[C@@H]12`, in experiment [1], the GI50 is 10600 nM and the TGI is 29.6 µM.
With `O=C(O)CSCCc1ccccc1`, the TGI in experiment [1] and in experiment [6] was greater than 100 µM throughout.
As for `CCOC1C(Br)Cn2c(=O)c3cc4ccccc4cc3c(=O)n2C1C` (stereo not given), the TGI in [2], in experiment [3], in [4], in experiment [7] and in [8] was greater than 100 µM in each case.
As to `O=NNc1ccc2ccccc2n1`, the TGI in experiment [1] and in experiment [6] was greater than 100 µM throughout.
For the compound `COc1ccc(C(C#N)NC23CC4CC(CC(C4)C2)C3)cc1` (stereo not given), the TGI in experiment [1] and in experiment [6] was greater than 100 µM each time.
Take `COc1ccc(NC(=O)CC/C(CC(=O)c2ccco2)=N/NC(=O)C(N)=O)cc1`: the TGI in experiment [2], in experiment [9], in experiment [3], in [4] and in [8] was greater than 100 µM throughout.
As to `CC(C)(C)c1cc([N+](=O)[O-])cc([N+](=O)[O-])c1O`, the TGI in experiment [6] was greater than 10 µM.
With `Cc1cc(N(CC(C)Br)CC(C)Br)ccc1N=Nc1ccccc1C(=O)O` (stereo not given), the TGI worked out at 26.5 µM in experiment [1]; 11.1 µM in experiment [2]; 8.29 µM in experiment [9]; 29 µM in [4]; 20.5 µM in [6]; 40.2 µM in [7]. Moreover, in experiment [8], the TGI is 4.62 µM.
`CCN(CC)CCCC(CCl)Nc1ccnc2cc(Cl)ccc12` (stereo not given): in experiment [1], the GI50 is 22400 nM and 15200 nM; the TGI is 60.2 µM and 49.1 µM.
With `COc1ccc2c(c1)C(=O)/C(=C/c1cccc(OCC(=O)c3ccccc3)c1)O2`, in experiment [1], the GI50 is 3630 nM and the TGI is 13.1 µM.
Regarding `CC/C=C\C[C@H]1CC=C2C(=O)C=C[C@@H]2CC=CCCCC(=O)O[C@@H](CCCCC)CC=C2C(=O)C=C[C@@H]2CC=CCCCC(=O)O[C@@H](CCCCC)CC=C2C(=O)C=C[C@@H]2CC=CCCCC(=O)O[C@@H](CCCCC)CC=C2C(=O)C=C[C@@H]2CC=CCCCC(=O)O1`, in experiment [1], the GI50 is 1780 nM and the TGI is 5.21 µM.
Take `Cc1ccc(S(=O)(=O)N=Nc2c(O)[nH]c3cc(O)c(C(=O)O)cc23)cc1`: the TGI in [1] and in [6] was greater than 100 µM in each case.
In the case of `O=C(O)c1ccc(CN2CCC(CN[C@@H]3C[C@H]3c3ccccc3)CC2)cc1`, in [1], the GI50 was greater than 100000 nM and the TGI is greater than 100 µM.
As for `C=CC(=O)N1CCC(Oc2cc3c(Nc4ccc(Cl)c(Cl)c4F)ncnc3cc2OC)CC1`, in [1], the GI50 is 1900 nM and 2230 nM; the TGI is 13.4 µM and > 10 µM.
Turning to `O=C(O)CCCc1ccc2ccc3ccccc3c2c1`, the TGI in [1] and in experiment [6] was greater than 100 µM each time.
In the case of `CC(=O)OC1OC([C@H]2c3cccc(O)c3C(=O)c3c(O)cc(C)cc32)C(O)C(O)C1O` (stereo not given in full), in experiment [1], the GI50 is 356 nM and the TGI came out at 1.03 µM.
With `Cc1cc(Cl)ccc1OCC(=O)Nc1nc2c(Cl)cccc2s1`, in [1], the GI50 was greater than 100000 nM and the TGI was greater than 100 µM.
With `CNC(=O)OCc1c(COC(=O)NC)c(-c2ccc(-c3ccccc3)cc2)n(C)c1C`, the TGI is 7.11 µM in experiment [1] and 18.5 µM in [6].
For the compound `COc1cccc2c1C(=N)c1c(O)c3c(c(O)c1C2=O)C[C@@](O)(C(C)=O)C[C@@H]3O[C@H]1C[C@H](N)[C@H](O)[C@H](C)O1`, in experiment [1], the GI50 is 813 nM and the TGI is 4.58 µM.
As for `Cc1cn(-c2cc(NC(=O)c3cccc(C#Cc4cccc5[nH]nc(N)c45)c3)cc(C(F)(F)F)c2)cn1`, in experiment [1], the GI50 is 5210 nM and the TGI amounted to 80.4 µM.
`CN(C)CCC(=O)N1C/C(=C\c2ccc(Cl)c(Cl)c2)C(=O)/C(=C/c2ccc(Cl)c(Cl)c2)C1`: the TGI was determined as 1.7 µM in [1]; 2.3 µM in [9]; 0.637 µM in experiment [3]; 1.13 µM in experiment [4]; 0.84 µM in [6]; 1.66 µM in [7]. Besides, the TGI in experiment [8] came to 2.32 µM.
For `N/N=C\c1c2ccccc2c(=O)n2c1oc1ccccc12`, in [1], the GI50 is 1420 nM and the TGI amounted to 17 µM.
In the case of `CC(=O)C1C(c2ccccc2)C2(C)OC(=O)C(C#N)C12C` (stereo not given), the TGI in experiment [2], in experiment [9], in [3], in experiment [4], in experiment [7] and in [8] was greater than 100 µM each time.
`CCCC1(CC(=O)O)OCCc2c1[nH]c1ccccc21` (stereo not given): the TGI in [2], in [9], in experiment [3], in experiment [4], in [7] and in [8] was greater than 100 µM throughout.
Compound `CN(C)Cc1cc(C(F)(F)F)ccc1C(O)(c1ccccc1)c1ccccc1` yielded a TGI in [6] of 33.7 µM.
For `CSC(SC)(C(=O)O)c1cc(-c2c(Cl)cccc2Cl)no1`, the TGI in experiment [1] was greater than 100 µM.
Turning to `COc1ccc2nc3cc(Cl)ccc3c(Sc3ccc([N+](=O)[O-])cc3C)c2c1`, the TGI in experiment [2], in experiment [9], in experiment [3], in [4], in experiment [7] and in [8] was greater than 100 µM in each case.
